In PubChem BioAssay (NCI):
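Method: 48-hour compound exposure of cells in 96-well plates, five concentrations, linear interpolation of endpoints. TGI denotes the concentration required for complete inhibition of growth.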

Columns and labels:
Experiment in all cases: growth of human tumour cells (NCI), 48 h
[1] = tested on: RXF-631 renal
[2] = tested on: XF 498 CNS
[3] = tested on: DLD-1 colon
[4] = tested on: M19-MEL melanoma
[5] = tested on: HOP-18 NSCLC
[6] = tested on: DMS 114 small cell lung

## O=C(O)CNS(=O)(=O)c1ccc(NC(=O)c2cccc([N+](=O)[O-])c2)cc1
[1]
  TGI: > 100 µM
[2]
  TGI: > 100 µM
[3]
  TGI: > 100 µM
[4]
  TGI: > 100 µM
[5]
  TGI: > 100 µM

## Cc1nc(Nc2ccc([N+](=O)[O-])cc2)sc1C(=O)/C=C/c1ccc(N(C)C)cc1
[1]
  TGI: > 100 µM
[6]
  TGI: > 100 µM
[3]
  TGI: > 100 µM
[4]
  TGI: > 100 µM
[5]
  TGI: > 100 µM

## COc1ccc(C2CC(C)=Nc3c([nH]c(=S)[nH]c3=O)N2)cc1 (centres undefined)
[1]
  TGI: > 100 µM
[6]
  TGI: 38.8 µM
[2]
  TGI: 59.4 µM
[4]
  TGI: 31 µM
[5]
  TGI: > 100 µM

## Clc1ccc(CCN2CCOCC2)c(Cl)c1
[1]
  TGI: > 100 µM
[6]
  TGI: > 100 µM
[2]
  TGI: > 100 µM
[3]
  TGI: > 100 µM
[4]
  TGI: > 100 µM
[5]
  TGI: > 100 µM

## c1ccc(CN(Cc2ccccn2)Cn2cccn2)nc1
[1]
  TGI: > 100 µM
[6]
  TGI: 54.6 µM
[2]
  TGI: > 100 µM
[3]
  TGI: > 100 µM
[4]
  TGI: > 100 µM

## N#CC(/C(=N\NC(N)=S)C(=O)NC1C2CC3CC(C2)CC1C3)c1ccc(Cl)cc1 (centres undefined)
[1]
  TGI: > 100 µM
[6]
  TGI: > 100 µM
[2]
  TGI: > 100 µM
[3]
  TGI: > 100 µM
[4]
  TGI: > 100 µM
[5]
  TGI: > 100 µM

## COc1ccc2c(c1)[n+]([O-])c(-c1ccc(Cl)c(Cl)c1)c(N)[n+]2[O-]
[1]
  TGI: 82.3 µM
[6]
  TGI: 32.1 µM
[3]
  TGI: > 100 µM
[4]
  TGI: > 100 µM
[5]
  TGI: > 100 µM

## C/C(=N\NC(=S)Nc1ccc([N+](=O)[O-])cc1S(=O)(=O)O)c1ccccn1
[1]
  TGI: > 100 µM
[6]
  TGI: > 100 µM
[2]
  TGI: 78.7 µM
[3]
  TGI: > 100 µM
[4]
  TGI: > 100 µM
[5]
  TGI: > 100 µM

## OCC1CC2CC1C1(C2)OCCO1 (centres undefined)
[1]
  TGI: > 100 µM
[6]
  TGI: > 100 µM
[2]
  TGI: > 100 µM
[3]
  TGI: > 100 µM
[4]
  TGI: > 100 µM
[5]
  TGI: > 100 µM

## Nc1nc(Cl)cc(NCCCCCCCCCCNc2cc(Cl)nc(N)n2)n1
[1]
  TGI: 40.3 µM
[2]
  TGI: 8.86 µM
[3]
  TGI: > 100 µM
[4]
  TGI: > 100 µM
[5]
  TGI: > 100 µM
